Laboratory results from ChEMBL document CHEMBL1157538, “Discovery of a potent, selective, and orally bioavailable c-Met inhibitor: 1-(2-hydroxy-2-methylpropyl)-N-(5-(7-methoxyquinolin-4-yloxy)pyridin-2-yl)-5-methyl-3-oxo-2-phenyl-2,3-dihydro-1H-pyrazole-4-carboxamide (AMG 458)” (J Med Chem, 2008).

Assays:
[1] = Half life in rat; assay type: ADME, organism-based; settings: in vivo
Mus musculus = test: Inhibition of HGF-mediated c-Met phosphorylation in BALB/c mouse liver at 30 mg/kg, po after 6 hrs; assay type: functional; parameters: scale not given: the % may be the effect or the level left
[2] = Clearance in rat; assay type: ADME, organism-based; settings: in vivo
[3] = Intrinsic clearance in human liver microsome; assay type: ADME; settings: liver microsomes
[4] = Intrinsic clearance in BALB/c mouse liver microsome; assay type: ADME; settings: liver microsomes
[5] = Oral bioavailability in rat; assay type: ADME, organism-based; settings: in vivo
[6] = Intrinsic clearance in Sprague-Dawley rat liver microsome; assay type: ADME; settings: liver microsomes

## COc1ccc2c(Oc3ccc(NC(=O)c4c(C)n(C[C@@H](C)O)n(-c5ccccc5)c4=O)cc3F)ccnc2c1
[1]
  half-life: 1.9 h
Mus musculus
  Activity: 98%
[2]
  clearance: < 3.33 mL/min/kg
[3]
  microsomal CLint: < 55 µL/min/mg
[4]
  microsomal CLint: < 45 µL/min/mg
[5]
  bioavailability: > 50%
[6]
  microsomal CLint: < 60 µL/min/mg
